One experiment deals with SR. In words: NCI 60 cell line panel. In kind it is cell-based. The following applies: Homo sapiens, Leukemia.
The subject of experiment [1] is M6/6 cells (SK-OV-3 expressing Pgp). Briefly: Antiproliferative SRB assay. The settings on record: M6/6 (Pgp) vs SKOV3.
The subject of the next experiment is A431 cancer cells. In words: A431 cytotoxicity (cell proliferation). The experiment is classed as cell-based, human. The settings on record: Homo sapiens, A-431.
A further experiment relates to MCF7. Briefly: NCI 60 cell line panel. In kind it is cell-based. The following applies: Homo sapiens, Breast Cancer.
A further experiment has as its system HeLa cells. In words: Antiproliferative SRB assay. In kind it is cell-based. The settings on record: Homo sapiens, HeLa, 48 h, read-out: IC50 ± SD in HeLa.
The next experiment concerns HOP-92. In words: NCI 60 cell line panel. In kind it is cell-based. The following applies: Homo sapiens, NSCLC.
In the next experiment the target is PDGFR-β (Homo sapiens (Human), UniProt P09619). In words: PDGFR-β kinase inhibition, phosphotyrosine ELISA cytoblot. In kind it is cell-based.
The next experiment concerns SF-539. Briefly: NCI 60 cell line panel. In kind it is cell-based. The following applies: Homo sapiens, CNS Cancer.
In a further experiment the test system is HT29. In words: NCI 60 cell line panel. In kind it is cell-based. The following applies: Homo sapiens, HT-29, Colon Cancer.
The subject of another experiment is UO-31. In words: NCI 60 cell line panel. The experiment is classed as cell-based. The settings on record: Homo sapiens, Renal Cancer.
The subject of another experiment is MDA-MB-468. Briefly: NCI 60 cell line panel. In kind it is cell-based. The following applies: Homo sapiens, Breast Cancer.
The next experiment relates to NCI-H522. In words: NCI 60 cell line panel. The settings on record: Homo sapiens, NSCLC. The experiment is classed as cell-based.
The next experiment deals with A549/ATCC. In words: NCI 60 cell line panel. The following applies: Homo sapiens, NSCLC. The experiment is classed as cell-based.
A further experiment concerns A498. Briefly: NCI 60 cell line panel. The experiment is classed as cell-based. The following applies: Homo sapiens, Renal Cancer.
The next experiment has as its system SK-MEL-28. Briefly: NCI 60 cell line panel. In kind it is cell-based. The following applies: Homo sapiens, Melanoma.
For the next experiment, the system named is MALME-3M. In words: NCI 60 cell line panel. In kind it is cell-based. The following applies: Homo sapiens, Melanoma.
Another experiment relates to RPMI-8226. In words: NCI 60 cell line panel. The experiment is classed as cell-based. The settings on record: Homo sapiens, Leukemia.
Experiment [2] concerns colchicine site on tubulin. Briefly: Inhibition of [3H]colchicine binding.
The test system of the next experiment is NCI-H322M. Briefly: NCI 60 cell line panel. In kind it is cell-based. The following applies: Homo sapiens, NSCLC.

PDGFR-β, sequence (P09619 33-1106): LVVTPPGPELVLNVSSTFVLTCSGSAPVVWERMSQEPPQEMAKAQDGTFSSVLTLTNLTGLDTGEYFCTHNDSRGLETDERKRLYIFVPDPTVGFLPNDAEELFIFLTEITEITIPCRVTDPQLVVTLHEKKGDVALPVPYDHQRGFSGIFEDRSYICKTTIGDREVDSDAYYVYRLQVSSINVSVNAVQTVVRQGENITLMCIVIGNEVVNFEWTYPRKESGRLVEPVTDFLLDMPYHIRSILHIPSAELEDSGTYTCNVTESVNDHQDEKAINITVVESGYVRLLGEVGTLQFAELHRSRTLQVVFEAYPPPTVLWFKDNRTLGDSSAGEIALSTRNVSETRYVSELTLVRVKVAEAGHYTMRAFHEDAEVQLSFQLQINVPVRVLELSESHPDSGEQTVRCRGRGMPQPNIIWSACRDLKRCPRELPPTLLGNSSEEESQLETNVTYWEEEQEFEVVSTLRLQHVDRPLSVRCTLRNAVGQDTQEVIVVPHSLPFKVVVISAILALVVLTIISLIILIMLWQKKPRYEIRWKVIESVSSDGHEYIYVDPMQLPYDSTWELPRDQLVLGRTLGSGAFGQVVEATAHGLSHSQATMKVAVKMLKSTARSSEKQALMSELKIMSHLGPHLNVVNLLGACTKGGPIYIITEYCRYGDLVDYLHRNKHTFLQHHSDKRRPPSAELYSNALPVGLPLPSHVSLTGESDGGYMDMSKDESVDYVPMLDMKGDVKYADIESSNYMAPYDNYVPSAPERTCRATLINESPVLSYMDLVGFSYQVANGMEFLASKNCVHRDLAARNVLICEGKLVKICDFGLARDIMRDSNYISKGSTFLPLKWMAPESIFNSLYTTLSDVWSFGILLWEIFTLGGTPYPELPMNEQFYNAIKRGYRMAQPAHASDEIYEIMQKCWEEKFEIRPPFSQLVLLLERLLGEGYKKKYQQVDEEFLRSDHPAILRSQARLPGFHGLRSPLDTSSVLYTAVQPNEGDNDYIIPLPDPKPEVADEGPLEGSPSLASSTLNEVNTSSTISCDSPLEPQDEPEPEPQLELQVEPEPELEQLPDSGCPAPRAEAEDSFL
Experimental for PDGFR-β: Cells used were tumor cell lines naturally expressing high levels of EGFR (A431), VEGFR-2 (U251), and PDGFR-β (SH-SYSY). […] The reaction was stopped and cells were permeabilized by quickly removing the media from the cells and adding ice-cold Tris-buffered saline (TBS) containing 0.05% Triton X-100, protease inhibitor cocktail and tyrosine phosphatase inhibitor cocktail. The TBS solution was then removed and cells fixed to the plate for 30 min at 60° C. and further incubation in 70% ethanol for an additional 30 min. Cells were further exposed to block (TBS with 1% BSA) for 1 h, washed, and then a horseradish peroxidase (HRP)-conjugated phosphotyrosine (PY) antibody was added overnight.

For the compound `Cc1nc(N(C)c2ccc3occc3c2)c2cc(C)oc2n1` [Compound 7, N-1-benzofuran-5-yl-N,2,6-trimethylfuro[2,3-d]pyrimidin-4-amine], the GI50 is 62.4 nM in the experiment with SR; 43.8 nM in the experiment with MCF7; 226 nM in the experiment with HOP-92; 60.9 nM with SF-539; 51.9 nM in the experiment with HT29; 278 nM in the experiment with UO-31. In addition, the concentration for 50% growth inhibition (GI50) turned out to be 31.5 nM in the experiment on MDA-MB-468 and 29.9 nM in the experiment on NCI-H522. In experiment [1], the “Rr value (relative resistance)” value came to 1.2. Moreover, the IC50 was determined as 73.2 ± 10.1 nM in the experiment on A431 cancer cells; 302 ± 23.4 nM in the experiment on HeLa cells; 25 ± 4.8 nM against PDGFR-β (SH-SY5Y cells, phosphotyrosine ELISA). Further, the “fold better than sunitinib, PDGFR-β” value on PDGFR-β (vs sunitinib) is “about 4 fold”.
Consider `COc1ccc2c(c1)CCCN2c1nc(C)nc2oc(C)cc12` [Compound 10, 4-(6-methoxy-3,4-dihydroquinolin-1(2H)-yl)-2,6-dimethylfuro[2,3-d]pyrimidine], for which the GI50 in the experiment with A549/ATCC, in the experiment with A498, in the experiment with SK-MEL-28, in the experiment on MCF7, in the experiment with MALME-3M and with RPMI-8226 was < 10 nM each time. Further, the GI50 with HOP-92 was 58.6 nM; with SF-539, < 10 nM; in the experiment with HT29 it was < 10 nM; in the experiment on UO-31, < 10 nM; in the experiment on MDA-MB-468, < 10 nM; in the experiment with NCI-H322M, < 10 nM. Besides, the GI50 in the experiment with NCI-H522 was < 10 nM. Besides, the 50% inhibitory concentration (IC50) stood at 18 ± 2.9 nM in the experiment with A431 cancer cells and 13.5 ± 0.5 nM with HeLa cells. Besides, the “Inhibition of colchicine binding % inhibition ± SD” value in [2] (1 μM) was found to be 82 ± 3%; in experiment [2] (5 μM), 96 ± 1%.

The values are drawn from patent publication US10189853B2, “Conformationally restricted 4-substituted-2,6-dimethylfuro[2,3-d]pyrimidines as anti-tumor agents” (DUQUESNE UNIVERSITY OF THE HOLY SPIRIT, priority 2014, dated 2019).
